Reference: US20230112484A1, “COMPOSITIONS FOR CROP PROTECTION” (Agrematch Ltd., priority 2020, published 2023)

How the values were obtained:
Assay type in all cases: in vivo
Amaranthus palmeri [1] = experiment: Soil germination (Example 1); conditions: for Amaranthus palmeri soil germination: score 0 = complete germination inhibition, 100 = no effect; for soil germination of Amaranthus palmeri, result in words: concentration not given
Protocol: (§1) Compounds were dissolved in DMSO and then in distilled water to get 0.01-2 mg/ml solution with 1% or 2% DMSO. 1% or 2% DMSO solution in water was used as a negative control. As a positive control, 0.1 or 0.2 mg/ml oxyfluorfen (Galigan) solution was used.
(§2) Flowerpots were filled with 30 g of soil, and 4-5 seeds were sowed in each flowerpot. Each treatment contained 3 flowerpots. Each flowerpot was sprayed with 1.5 ml of the dissolved compound. Soil was let dry for about 1 hour at room conditions, and then each flowerpot was sub-irrigated with 40 ml water and incubated under conditions provided below.
(§3) Amaranthus palmeri was incubated at 25° C. for 8 hr in dark, followed by 16 hr at 30° C. in light. Lolium rigidum was incubated at 21° C. for 8 hr in dark, followed by 16 hr at 21° C. in light. Germination was assessed and scored after 4-7 days. Scoring scale: 0—complete germination inhibition, 100—no effect.

Lolium rigidum [2] = experiment: Soil germination (Example 1); conditions: for Lolium rigidum soil germination: score 0 = complete germination inhibition, 100 = no effect; for soil germination of Lolium rigidum, result in words: concentration not given
Protocol: as §1, §2, §3

Amaranthus palmeri [3] = experiment: Pre-emergence application (Example 5); conditions: score 0 = complete germination inhibition, 100 = no effect
Protocol: For pre-emergence application, compounds were dissolved in DMSO and then in distilled water to get 0.1-2 mg/ml solution with 2% DMSO. 2% DMSO solution in water was used as a negative control. As a positive control, 0.2 mg/ml oxyfluorfen ([…]) solution was used. For pre-emergence application, flowerpots were filled with 30 g of soil, and 4-5 Amaranthus palmeri seeds were sowed in each flowerpot. Each treatment contained 3 flowerpots. Each flowerpot was sprayed with 1.5 ml of the dissolved compound. Soil was let dry for about 1 hour at room conditions, and then each flowerpot was sub-irrigated with 40 ml water and incubated under conditions provided below. Amaranthus palmeri was incubated at 25° C. for 8 hr in dark, followed by 16 hr at 30° C. in light. Germination was assessed and scored after 4-7 days. Scoring scale: 0-complete germination inhibition, 100-no effect.

Amaranthus palmeri [4] = experiment: Post-emergence application (Example 5); conditions: score 0 = complete phytotoxic effect, 100 = no effect
Protocol: (§4) For post-emergence application, compounds were dissolved in DMSO and then in distilled water to get 0.05-2 mg/ml solution with 2% DMSO. Break-Thru surfactant was added to a final concentration of 0.05%. Negative control—an aqueous solution of 2% DMSO and 0.05% Break-Thru. Positive control—2 mg/ml Glyphosate (Roundup). For post-emergence application, 1.5 ml of each compound solution were sprayed on the foliage of Amaranthus palmeri, which were 10 days old at the day of the experiment. Each treatment contained 3 pots. Plants were let dry for about 15 minutes at room conditions, and then incubated at controlled growth chambers. Phytotoxicity was assessed and scored 4-10 days after applications. Scoring scale: 0—complete phytotoxic effect, 100—no effect.

Setaria viridis = experiment: Herbicidal effect against Setaria viridis (Example 5); conditions: for Herbicidal effect against Setaria viridis, result in words: in vivo
Triticum vulgare [5] = experiment: Foliar experiment (Example 2); conditions: 0.1 mg/ml; score 0 = complete phytotoxic effect, 100 = no effect
Protocol: as §4, with “Compounds were” for “For post-emergence application, compounds were”, “get 0.1 or 0.5” for “get 0.05-2”, “(Roundup).” for “(Roundup). For post-emergence application,”, “of different plants,” for “of Amaranthus palmeri,”, “were 6-16” for “were 10”, “effect. [table]” for “effect.”

Zea mays [6] = experiment: Foliar experiment (Example 2); conditions: 0.1 mg/ml; score 0 = complete phytotoxic effect, 100 = no effect
Protocol: as §4, with “Compounds were” for “For post-emergence application, compounds were”, “get 0.1 or 0.5” for “get 0.05-2”, “(Roundup).” for “(Roundup). For post-emergence application,”, “of different plants,” for “of Amaranthus palmeri,”, “were 6-16” for “were 10”, “effect. [table]” for “effect.”

Abutilon theophrasti = experiment: Soil germination (Example 3); conditions: 0.1 mg/ml; score 0 = complete germination inhibition, 100 = no effect; after 7 days
Protocol: (§5) Compounds were dissolved in DMSO and then in distilled water to get 0.1 or 0.5 mg/ml solution with 2% DMSO. 2% DMSO solution in water was used as a negative control. No positive control was used in this assay. Flowerpots were filled with 30 g of soil, each treatment contained three flowerpots. Each flowerpot was sprayed with 1.5 ml of the dissolved compound. Soil was let dry for about 1 hour at room conditions, and then each flowerpot was sub-irrigated with 40 ml water and incubated at controlled growth chambers, under conditions provided on table 6. Gemination was assessed and scored after 7 days. Scoring scale: 0—complete germination inhibition, 100—no effect. [table]

Amaranthus palmeri [7] = experiment: Soil germination (Example 3); conditions: 0.1 mg/ml; score 0 = complete germination inhibition, 100 = no effect; after 7 days
Protocol: as §5

Echinochloa colonum = experiment: Soil germination (Example 3); conditions: 0.1 mg/ml; score 0 = complete germination inhibition, 100 = no effect; after 7 days
Protocol: as §5

Lolium rigidum [8] = experiment: Soil germination (Example 3); conditions: 0.1 mg/ml; score 0 = complete germination inhibition, 100 = no effect; after 7 days
Protocol: as §5

Setaria adhaerens = experiment: Soil germination (Example 3); conditions: 0.1 mg/ml; score 0 = complete germination inhibition, 100 = no effect; after 7 days
Protocol: as §5

Triticum vulgare [9] = experiment: Soil germination (Example 3); conditions: 0.1 mg/ml; score 0 = complete germination inhibition, 100 = no effect; after 7 days
Protocol: as §5

Zea mays [10] = experiment: Soil germination (Example 3); conditions: 0.1 mg/ml; score 0 = complete germination inhibition, 100 = no effect; after 7 days
Protocol: as §5

Amaranthus palmeri [11] = experiment: Residual activity greenhouse assay; conditions: seeds sowed three weeks after pre-emergence application
Description: Residual activity of Compound 1 and Compound 2 was examined in greenhouse assay. Three weeks after pre-emergence application, new Amaranthus palmeri seeds were sowed on the same pots and germination was followed.

[12] = 2 mg/ml, 4-10 days after application

Cc1ccsc1CN(CC(C)C)C(=O)/C=C/C(C)Cl (centres unmarked) [Compound 6]
Amaranthus palmeri soil germination (Amaranthus palmeri [1]; 0.1 mg/ml): 100 | Amaranthus palmeri soil germination (Amaranthus palmeri [1]; 0.25 mg/ml): 100 | Amaranthus palmeri soil germination (Amaranthus palmeri [1]; 0.5 mg/ml): 100 | Amaranthus palmeri soil germination (Amaranthus palmeri [1]; 1 mg/ml): 70 | Amaranthus palmeri soil germination (Amaranthus palmeri [1]; 2 mg/ml, after 4-7 days): 0 | soil germination of Amaranthus palmeri, result in words (Amaranthus palmeri [1]): active | Lolium rigidum soil germination (Lolium rigidum [2]; 2 mg/ml): 30 | soil germination of Lolium rigidum, result in words (Lolium rigidum [2]): active

CC(Cl)/C=C/C(=O)N(CCC(C)C)Cc1ccc(Cl)s1 (centres unmarked) [Compound 14]
Pre-emergence Amaranthus palmeri herbicidal activity (Amaranthus palmeri [3]; 0.1 mg/ml): 20 | Pre-emergence Amaranthus palmeri herbicidal activity (Amaranthus palmeri [3]; 0.25 mg/ml): 5 | Post-emergence Amaranthus palmeri herbicidal activity (Amaranthus palmeri [4]; 0.25 mg/ml): 20 | Post-emergence Amaranthus palmeri herbicidal activity (Amaranthus palmeri [4]; 0.5 mg/ml): 20 | Herbicidal effect against Setaria viridis, result in words (Setaria viridis): moderate herbicidal effect

CC(Cl)/C=C/C(=O)N(CCC(C)C)Cc1ccc(Cl)nc1 (centres unmarked) [Compound 12]
Pre-emergence Amaranthus palmeri herbicidal activity (Amaranthus palmeri [3]; 0.1 mg/ml): 20 | Pre-emergence Amaranthus palmeri herbicidal activity (Amaranthus palmeri [3]; 0.25 mg/ml): 5 | Post-emergence Amaranthus palmeri herbicidal activity (Amaranthus palmeri [4]; 0.05 mg/ml): 0 | Post-emergence Amaranthus palmeri herbicidal activity (Amaranthus palmeri [4]; 0.075 mg/ml): 0 | Herbicidal effect against Setaria viridis, result in words (Setaria viridis): moderate herbicidal effect

CC(Cl)/C=C/C(=O)N(CC(C)C)CC(F)(F)F (centres unmarked) [Compound 11]
Pre-emergence Amaranthus palmeri herbicidal activity (Amaranthus palmeri [3]; 0.1 mg/ml): 15 | Pre-emergence Amaranthus palmeri herbicidal activity (Amaranthus palmeri [3]; 0.25 mg/ml): 5 | Pre-emergence Amaranthus palmeri herbicidal activity (Amaranthus palmeri [3]; 2 mg/ml, after 4-7 days): 0 | Post-emergence Amaranthus palmeri herbicidal activity (Amaranthus palmeri [4]; [12]): 60

CCOCC#CCN(CC(C)C)C(=O)/C=C/C(C)Cl (centres unmarked) [Compound 9]
Pre-emergence Amaranthus palmeri herbicidal activity (Amaranthus palmeri [3]; 0.1 mg/ml): 60 | Pre-emergence Amaranthus palmeri herbicidal activity (Amaranthus palmeri [3]; 0.25 mg/ml): 50 | Pre-emergence Amaranthus palmeri herbicidal activity (Amaranthus palmeri [3]; 2 mg/ml, after 4-7 days): 0 | Post-emergence Amaranthus palmeri herbicidal activity (Amaranthus palmeri [4]; [12]): 80

CC(Cl)/C=C/C(=O)N(Cc1ccc(Cl)nc1)CC(C)C (centres unmarked) [Compound 2]
Amaranthus palmeri soil germination (Amaranthus palmeri [1]; 0.01 mg/ml): 60 | Amaranthus palmeri soil germination (Amaranthus palmeri [1]; 0.025 mg/ml): 50 | Amaranthus palmeri soil germination (Amaranthus palmeri [1]; 0.05 mg/ml): 0 | Amaranthus palmeri soil germination (Amaranthus palmeri [1]; 0.1 mg/ml): 0 | Herbicidal activity, foliar, Triticum vulgare (Triticum vulgare [5]): 90 | Herbicidal activity, foliar, Zea mays (Zea mays [6]): 90 | Herbicidal activity, soil germination, Abutilon theophrasti (Abutilon theophrasti): 100 | Herbicidal activity, soil germination, Amaranthus palmeri (Amaranthus palmeri [7]): 0 | Herbicidal activity, soil germination, Echinochloa colonum (Echinochloa colonum): 100 | Herbicidal activity, soil germination, Lolium rigidum (Lolium rigidum [8]): 90 | Herbicidal activity, soil germination, Setaria adhaerens (Setaria adhaerens): 80 | Herbicidal activity, soil germination, Triticum vulgare (Triticum vulgare [9]): 100 | Herbicidal activity, soil germination, Zea mays (Zea mays [10]): 100 | Residual activity: germination of newly sowed Amaranthus palmeri seeds (Amaranthus palmeri [11]): no germination was observed

CC(Cl)/C=C/C(=O)N(CCC(C)C)CCC(C)C (centres unmarked) [Compound 16]
Pre-emergence Amaranthus palmeri herbicidal activity (Amaranthus palmeri [3]; 0.1 mg/ml): 10 | Pre-emergence Amaranthus palmeri herbicidal activity (Amaranthus palmeri [3]; 0.25 mg/ml): 0 | Post-emergence Amaranthus palmeri herbicidal activity (Amaranthus palmeri [4]; 0.25 mg/ml): 50 | Post-emergence Amaranthus palmeri herbicidal activity (Amaranthus palmeri [4]; 0.5 mg/ml): 10 | Inhibition of Setaria viridis (Setaria viridis; applying to the area under cultivation): more than 30% | Herbicidal effect against Setaria viridis, result in words (Setaria viridis): very good herbicidal effect

CCC#CCN(CC(C)C)C(=O)/C=C/C(C)Cl (centres unmarked) [Compound 8]
Pre-emergence Amaranthus palmeri herbicidal activity (Amaranthus palmeri [3]; 0.1 mg/ml): 100 | Pre-emergence Amaranthus palmeri herbicidal activity (Amaranthus palmeri [3]; 0.25 mg/ml): 40 | Pre-emergence Amaranthus palmeri herbicidal activity (Amaranthus palmeri [3]; 2 mg/ml, after 4-7 days): 0 | Post-emergence Amaranthus palmeri herbicidal activity (Amaranthus palmeri [4]; [12]): 30

CC(F)/C=C/C(=O)N(Cc1ccc(Cl)nc1)CC(C)C (centres unmarked) [Compound 3]
Amaranthus palmeri soil germination (Amaranthus palmeri [1]; 0.1 mg/ml): 30

CC(Cl)/C=C/C(=O)N(CC(C)C)CC(C)C (centres unmarked) [Compound 1]
Amaranthus palmeri soil germination (Amaranthus palmeri [1]; 0.01 mg/ml): 80 | Amaranthus palmeri soil germination (Amaranthus palmeri [1]; 0.025 mg/ml): 30 | Amaranthus palmeri soil germination (Amaranthus palmeri [1]; 0.05 mg/ml): 0 | Amaranthus palmeri soil germination (Amaranthus palmeri [1]; 0.1 mg/ml): 0 | Amaranthus palmeri soil germination (Amaranthus palmeri [1]; 0.25 mg/ml): 0 | soil germination of Amaranthus palmeri, result in words (Amaranthus palmeri [1]): active | Lolium rigidum soil germination (Lolium rigidum [2]; 0.5 mg/ml): 60 | soil germination of Lolium rigidum, result in words (Lolium rigidum [2]): active | Herbicidal activity, soil germination, Abutilon theophrasti (Abutilon theophrasti): 100 | Herbicidal activity, soil germination, Amaranthus palmeri (Amaranthus palmeri [7]): 0 | Herbicidal activity, soil germination, Echinochloa colonum (Echinochloa colonum): 100 | Herbicidal activity, soil germination, Setaria adhaerens (Setaria adhaerens): 60 | Herbicidal activity, soil germination, Triticum vulgare (Triticum vulgare [9]): 100 | Herbicidal activity, soil germination, Zea mays (Zea mays [10]): 100 | Residual activity: germination of newly sowed Amaranthus palmeri seeds (Amaranthus palmeri [11]): germination was observed

CC(Cl)/C=C/C(=O)N(CCC(C)C)Cc1cnc(Cl)s1 (centres unmarked) [Compound 15]
Pre-emergence Amaranthus palmeri herbicidal activity (Amaranthus palmeri [3]; 0.1 mg/ml): 20 | Pre-emergence Amaranthus palmeri herbicidal activity (Amaranthus palmeri [3]; 0.25 mg/ml): 0 | Post-emergence Amaranthus palmeri herbicidal activity (Amaranthus palmeri [4]; 0.25 mg/ml): 5 | Post-emergence Amaranthus palmeri herbicidal activity (Amaranthus palmeri [4]; 0.5 mg/ml): 0 | Herbicidal effect against Setaria viridis, result in words (Setaria viridis): moderate herbicidal effect

CC(Cl)/C=C/C(=O)N(Cc1ccc(C#N)nc1)CC(C)C (centres unmarked) [Compound 13]
Pre-emergence Amaranthus palmeri herbicidal activity (Amaranthus palmeri [3]; 0.1 mg/ml): 30 | Pre-emergence Amaranthus palmeri herbicidal activity (Amaranthus palmeri [3]; 0.25 mg/ml): 0 | Post-emergence Amaranthus palmeri herbicidal activity (Amaranthus palmeri [4]; 0.05 mg/ml): 10 | Post-emergence Amaranthus palmeri herbicidal activity (Amaranthus palmeri [4]; 0.075 mg/ml): 0 | Herbicidal effect against Setaria viridis, result in words (Setaria viridis): moderate herbicidal effect

CC#CCN(CC(C)C)C(=O)/C=C/C(C)Cl (centres unmarked) [Compound 7]
Pre-emergence Amaranthus palmeri herbicidal activity (Amaranthus palmeri [3]; 0.1 mg/ml): 10 | Pre-emergence Amaranthus palmeri herbicidal activity (Amaranthus palmeri [3]; 0.25 mg/ml): 5 | Pre-emergence Amaranthus palmeri herbicidal activity (Amaranthus palmeri [3]; 2 mg/ml, after 4-7 days): 0 | Post-emergence Amaranthus palmeri herbicidal activity (Amaranthus palmeri [4]; [12]): 40

C#CCOCC#CCN(CC(C)C)C(=O)/C=C/C(C)Cl (centres unmarked) [Compound 10]
Pre-emergence Amaranthus palmeri herbicidal activity (Amaranthus palmeri [3]; 0.1 mg/ml): 100 | Pre-emergence Amaranthus palmeri herbicidal activity (Amaranthus palmeri [3]; 0.25 mg/ml): 5 | Pre-emergence Amaranthus palmeri herbicidal activity (Amaranthus palmeri [3]; 2 mg/ml, after 4-7 days): 0 | Post-emergence Amaranthus palmeri herbicidal activity (Amaranthus palmeri [4]; [12]): 70

COc1ccc(CN(CC(C)C)C(=O)/C=C/[C@@H](C)Cl)cc1 [reference compound]
Amaranthus palmeri soil germination (Amaranthus palmeri [1]; 0.1 mg/ml): substantially less active | Lolium rigidum soil germination (Lolium rigidum [2]; 0.5 mg/ml): unable to reduce soil germination
